Values of other authors as cited in US4686282A, “Immunotherapeutic polypeptide agents which block immune complex binding to immunoglobulin Fc receptors” (Immunetech, Inc., priority 1983, dated 1987).
Each block holds one substance with its values, some of them ahead of it. Ends that are not written are not given here.

How the values were obtained:
[1] = system: human and rodent mast cells; conditions: Stanworth et al. 1979
C1 = C1 (Homo sapiens, UniProt P02745+P02746+P02747); conditions: compared with intact monomeric IgG; Prystowsky et al. 1981, Lukas et al. 1981
Chain of C1 (P02745 23-245): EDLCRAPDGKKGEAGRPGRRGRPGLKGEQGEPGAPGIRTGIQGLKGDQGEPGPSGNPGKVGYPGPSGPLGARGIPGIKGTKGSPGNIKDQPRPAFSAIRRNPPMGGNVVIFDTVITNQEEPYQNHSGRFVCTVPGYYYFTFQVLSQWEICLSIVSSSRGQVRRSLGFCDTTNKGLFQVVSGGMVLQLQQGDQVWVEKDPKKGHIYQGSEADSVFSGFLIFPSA
Chain of C1 (P02746 28-253): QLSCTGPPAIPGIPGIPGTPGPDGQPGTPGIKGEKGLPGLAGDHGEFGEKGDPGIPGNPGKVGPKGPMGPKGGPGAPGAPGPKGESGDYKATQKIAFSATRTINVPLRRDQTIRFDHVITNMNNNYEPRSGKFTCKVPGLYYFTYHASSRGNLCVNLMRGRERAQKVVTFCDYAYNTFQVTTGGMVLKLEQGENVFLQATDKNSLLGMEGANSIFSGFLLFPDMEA
Chain of C1 (P02747 29-245): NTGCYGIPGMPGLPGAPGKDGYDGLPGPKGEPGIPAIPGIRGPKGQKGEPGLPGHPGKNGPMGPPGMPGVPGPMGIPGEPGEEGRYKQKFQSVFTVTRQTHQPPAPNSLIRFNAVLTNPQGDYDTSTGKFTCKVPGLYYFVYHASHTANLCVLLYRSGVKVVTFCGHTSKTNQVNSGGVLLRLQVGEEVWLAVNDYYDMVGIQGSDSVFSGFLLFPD
Chain of C1 (P00736 18-705 partner): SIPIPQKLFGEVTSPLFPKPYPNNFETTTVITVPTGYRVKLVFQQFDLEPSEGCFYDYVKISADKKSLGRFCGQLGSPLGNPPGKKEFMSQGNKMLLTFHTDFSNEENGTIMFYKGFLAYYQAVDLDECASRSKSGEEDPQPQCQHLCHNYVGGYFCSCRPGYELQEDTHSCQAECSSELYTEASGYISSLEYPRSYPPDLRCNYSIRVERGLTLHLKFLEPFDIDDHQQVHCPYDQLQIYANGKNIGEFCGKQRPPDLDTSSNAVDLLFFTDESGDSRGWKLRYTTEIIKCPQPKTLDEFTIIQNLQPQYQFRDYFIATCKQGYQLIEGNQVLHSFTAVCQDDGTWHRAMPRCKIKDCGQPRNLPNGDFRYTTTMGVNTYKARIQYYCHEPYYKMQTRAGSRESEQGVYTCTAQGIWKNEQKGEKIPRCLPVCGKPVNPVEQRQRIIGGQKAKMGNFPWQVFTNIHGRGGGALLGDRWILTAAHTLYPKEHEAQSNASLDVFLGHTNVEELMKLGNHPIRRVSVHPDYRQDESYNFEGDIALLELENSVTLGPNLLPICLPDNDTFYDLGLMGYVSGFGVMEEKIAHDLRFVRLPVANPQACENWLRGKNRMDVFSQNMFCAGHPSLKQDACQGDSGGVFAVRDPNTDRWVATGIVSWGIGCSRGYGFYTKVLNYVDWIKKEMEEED
Chain of C1 (P09871 16-688 partner): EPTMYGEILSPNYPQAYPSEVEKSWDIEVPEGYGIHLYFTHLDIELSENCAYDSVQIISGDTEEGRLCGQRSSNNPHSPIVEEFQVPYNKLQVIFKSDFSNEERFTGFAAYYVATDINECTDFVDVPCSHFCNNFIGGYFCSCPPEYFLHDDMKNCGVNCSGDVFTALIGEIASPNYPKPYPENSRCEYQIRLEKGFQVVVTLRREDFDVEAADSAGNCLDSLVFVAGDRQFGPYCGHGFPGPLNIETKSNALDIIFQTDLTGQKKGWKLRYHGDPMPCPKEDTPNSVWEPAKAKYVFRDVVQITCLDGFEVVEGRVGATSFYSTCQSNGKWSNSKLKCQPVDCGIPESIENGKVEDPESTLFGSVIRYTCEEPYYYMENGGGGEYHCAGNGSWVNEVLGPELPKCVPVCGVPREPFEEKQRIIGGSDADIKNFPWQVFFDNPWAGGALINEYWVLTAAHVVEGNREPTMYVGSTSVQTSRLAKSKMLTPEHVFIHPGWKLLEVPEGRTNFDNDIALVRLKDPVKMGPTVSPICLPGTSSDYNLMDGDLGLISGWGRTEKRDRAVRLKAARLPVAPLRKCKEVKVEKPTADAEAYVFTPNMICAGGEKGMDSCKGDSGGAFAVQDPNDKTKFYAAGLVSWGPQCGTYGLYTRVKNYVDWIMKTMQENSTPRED

[2] = system: human monocyte IgG Fc receptors
[3] = system: granulocytes, monocytes and macrophages; conditions: in vitro; literature
[4] = system: local cutaneous allergic reaction (Prausnitz-Kustner); conditions: Hamburger 1975
[5] = humans, injection by the subcutaneous route
[6] = biological target: T1, IgE Fc receptor of human basophils (Homo sapiens, UniProt P12319); conditions: Plummer et al. 1983
T1 construct: host or cells: human basophils
T1 sequence (P12319 26-257): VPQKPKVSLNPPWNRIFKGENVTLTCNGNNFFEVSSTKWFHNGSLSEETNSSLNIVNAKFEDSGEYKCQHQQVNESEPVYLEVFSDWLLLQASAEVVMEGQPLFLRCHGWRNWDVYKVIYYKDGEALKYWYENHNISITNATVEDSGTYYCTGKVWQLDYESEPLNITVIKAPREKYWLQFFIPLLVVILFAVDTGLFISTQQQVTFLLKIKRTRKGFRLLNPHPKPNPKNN
T1 sequence (Q01362 1-244 partner): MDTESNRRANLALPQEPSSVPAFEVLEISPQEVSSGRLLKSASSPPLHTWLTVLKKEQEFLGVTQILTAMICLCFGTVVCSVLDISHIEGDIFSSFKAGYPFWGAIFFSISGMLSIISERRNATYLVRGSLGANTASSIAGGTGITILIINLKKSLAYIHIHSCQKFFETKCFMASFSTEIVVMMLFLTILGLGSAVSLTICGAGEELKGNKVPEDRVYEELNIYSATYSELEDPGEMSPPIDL
T1 sequence (P30273 19-86 partner): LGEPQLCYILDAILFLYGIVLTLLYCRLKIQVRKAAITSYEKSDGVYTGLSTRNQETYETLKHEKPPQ

lymphocytes = conditions: Morgan, Huguli and Weigle 1982

Substance: PRKTKGSGFFVF
degranulation of human and rodent mast cells [1]: able to cause degranulation

Substance: FNWYVDGVQVHNAKTK
inhibitors of C1-mediated hemolysis (C1): less active

Substance: Ac-Phe-Asn-Trp-Tyr-Val (Ac-FNWYV)
inhibitors of C1-mediated hemolysis (C1): less active

Substance: Thr-Lys-Pro-Arg (TKPR; printed: Thr-Lys-Pro-Arg) [Tuftsin]
inhibits human IgG binding to human monocyte IgG Fc receptors ([2]; Ratcliffe and Stanworth 1982 and ourselves): competitively inhibits
phagocytosis stimulating ability [3]: active at nanomolar concentrations
inhibitors of C1-mediated hemolysis (C1): less active

block IgG binding to human monocyte IgG Fc receptors ([2]; Ratcliffe and Stanworth 1982): slightly block
Substance: QYDSTYR

Substance: Val-Gln-Val-His-Asn-Ala-Lys-Thr-Lys-Pro-Arg-OH (VQVHNAKTKPR-OH)
inhibitors of C1-mediated hemolysis (C1): approximately as active as inhibitors as intact monomeric IgG

block human IgE binding to basophil IgE Fc receptors [6]: up to 70%
Substance: Asp-Ser-Asp-Pro-Arg (DSDPR; printed: Asp-Ser-Asp-Pro-Arg)
inhibit a local cutaneous allergic reaction (Prausnitz-Kustner) [4]: approximately 90%
inhibit systemic allergic disease [5]: inhibit systemic allergic disease

Substance: GVQVHNAKTK
inhibitors of C1-mediated hemolysis (C1): approximately as active as inhibitors as intact monomeric IgG

Substance: TISKAKGQPREPQVYTLPSREEM
nonspecific activation of lymphocytes (lymphocytes): ability to nonspecifically activate lymphocytes
